From ChEMBL document CHEMBL6092221, “Discovery of a Novel Macrocyclic Noncovalent CDK7 Inhibitor for Cancer Therapy” (J Med Chem, 2024)

Legend:
HCC70 = test: cells; settings: Homo sapiens, HCC70, 72 h
Description: Antiproliferative activity against human HCC70 cells assessed as inhibition of cell proliferation incubated for 72 hrs by celltiter-glo assay

[1] = target: Cyclin-dependent kinase 7/ cyclin H (Homo sapiens, UniProt P50613); test: Binding affinity to CDK7/CyclinH (unknown origin) assessed as dissociation constant by SPR assay; format: protein-complex assay
[2] = Clearance in female Balb/c nude mouse at 1 mg/kg, iv; format: ADME, organism-based; settings: in vivo
[3] = AUC(0 to infinity) in female Balb/c nude mouse at 1 mg/kg, iv; format: ADME, organism-based; settings: in vivo
[4] = Half life in female Balb/c nude mouse at 10 mg/kg, po; format: ADME, organism-based; settings: in vivo
[5] = Cmax in female Balb/c nude mouse at 10 mg/kg, po; format: ADME, organism-based; settings: in vivo
[6] = AUC(0 to infinity) in female Balb/c nude mouse at 10 mg/kg, po; format: ADME, organism-based; settings: in vivo
[7] = Oral bioavailability in female Balb/c nude mouse at 10 mg/kg; format: ADME, organism-based; settings: in vivo
[8] = Efflux ratio of permeability in human Caco-2 cells; format: ADME, cell-based
[9] = Metabolic stability in mouse liver microsomes assessed as intrinsic clearance; format: ADME, Microsome; settings: read-out: CLH
[10] = Volume of distribution at steady state in female Balb/c nude mouse at 1 mg/kg, iv; format: ADME, organism-based; settings: in vivo, read-out: Vdss
[11] = Permeability in human Caco-2 cells; format: ADME, cell-based; settings: read-out: permeability
OVCAR-3 = test: cells; settings: Homo sapiens, OVCAR-3, 72 h
Description: Antiproliferative activity against human OVCAR-3 cells assessed as inhibition of cell proliferation incubated for 72 hrs by celltiter-glo assay

CDK7/Cyclin H/MNAT1 = CDK7/Cyclin H/MNAT1 (Homo sapiens, UniProt P50613); test: Inhibition of CDK7/CyclinH/MAT1 (unknown origin) in presence of ATP by kinase activity assay; format: protein-complex assay
CDK7/Cyclin H/MNAT1, sequence (P51946 whole entry): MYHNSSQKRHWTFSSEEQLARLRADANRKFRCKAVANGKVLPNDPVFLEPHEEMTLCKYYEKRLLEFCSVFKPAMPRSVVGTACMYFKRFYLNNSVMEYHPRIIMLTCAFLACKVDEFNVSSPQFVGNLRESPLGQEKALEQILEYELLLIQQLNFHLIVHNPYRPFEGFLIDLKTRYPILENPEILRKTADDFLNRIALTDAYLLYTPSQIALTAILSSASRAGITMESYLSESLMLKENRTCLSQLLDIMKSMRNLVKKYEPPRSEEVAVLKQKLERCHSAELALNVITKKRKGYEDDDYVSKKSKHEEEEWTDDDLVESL
CDK7/Cyclin H/MNAT1, sequence (P50613 whole entry): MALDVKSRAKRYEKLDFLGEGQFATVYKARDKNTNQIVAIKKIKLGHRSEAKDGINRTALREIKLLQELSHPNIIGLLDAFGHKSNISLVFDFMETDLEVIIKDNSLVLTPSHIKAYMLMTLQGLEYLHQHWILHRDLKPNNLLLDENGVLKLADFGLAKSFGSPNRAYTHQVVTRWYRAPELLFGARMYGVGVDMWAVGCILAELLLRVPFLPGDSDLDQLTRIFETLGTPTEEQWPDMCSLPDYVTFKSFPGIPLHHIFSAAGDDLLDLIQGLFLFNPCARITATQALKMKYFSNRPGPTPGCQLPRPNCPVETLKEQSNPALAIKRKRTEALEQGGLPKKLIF
CDK7/Cyclin H/MNAT1, sequence (P51948 whole entry, further chain): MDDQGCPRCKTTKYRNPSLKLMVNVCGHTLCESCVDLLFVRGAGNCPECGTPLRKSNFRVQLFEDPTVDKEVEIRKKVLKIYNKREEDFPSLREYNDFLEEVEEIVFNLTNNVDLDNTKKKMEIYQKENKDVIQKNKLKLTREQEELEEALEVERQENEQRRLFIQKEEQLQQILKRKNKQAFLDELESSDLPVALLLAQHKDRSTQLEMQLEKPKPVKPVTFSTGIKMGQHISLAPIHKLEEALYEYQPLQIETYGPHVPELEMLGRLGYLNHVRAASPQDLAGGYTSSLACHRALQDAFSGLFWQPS

[12] = Half life in female Balb/c nude mouse at 5 mg/kg, po; format: ADME, organism-based; settings: in vivo
[13] = Cmax in female Balb/c nude mouse at 5 mg/kg, po; format: ADME, organism-based; settings: in vivo
[14] = AUC(0 to t) in female Balb/c nude mouse at 5 mg/kg, po; format: ADME, organism-based; settings: in vivo
[15] = Oral bioavailability in female Balb/c nude mouse at 5 mg/kg; format: ADME, organism-based; settings: in vivo

Cyclin-dependent kinase 7/ cyclin H, sequence (P51946 whole entry): as the sequence (P51946 whole entry) above
Cyclin-dependent kinase 7/ cyclin H, sequence (P50613 whole entry): as the sequence (P50613 whole entry) above

Which IC50 (HCC70) does the source give for CP(C)(=O)c1c2ccc3c(c[nH]c13)-c1nc(ncc1C(F)(F)F)N[C@H]1CC[C@@H](C1)NCCCCCNC2=O here?
The IC50 was 202 nM.

What does the source list for CP(C)(=O)c1c2ccc3c(c[nH]c13)-c1nc(ncc1C(F)(F)F)N[C@H]1CC[C@@H](C1)NCCCCNC2=O?
Kd [1]: 0.16 nM; clearance [2]: 49.3 mL/min/kg; AUC(0-inf) [3]: 333 ng·h/mL; half-life [4]: 1.4 h; Cmax [5]: 16.8 ng/mL; AUC(0-inf) [6]: 26 ng·h/mL; bioavailability [7]: 0.7%; efflux ratio [8]: > 15.1; CLint scaled [9]: < 13.4 mL/min/kg; Vd [10]: 3.6 L/kg; Papp [11]: < 0.48 ×10⁻⁶ cm/s; IC50 (HCC70): 33 nM

What does the source list for CN1C[C@H](F)CCN(C)[C@H]2CC[C@@H](C2)Nc2ncc(C(F)(F)F)c(n2)-c2c[nH]c3c(P(C)(C)=O)c(ccc23)C1=O?
efflux ratio [8]: 22.3; Papp [11]: 0.9 ×10⁻⁶ cm/s; IC50 (HCC70): 44 nM; IC50 (OVCAR-3): 62.6 nM

Which IC50 (CDK7/Cyclin H/MNAT1) does the source give for O=C1NCCCCN[C@@H]2CC[C@H](C2)Nc2ncc(C(F)(F)F)c(n2)-c2c[nH]c3cc1ccc23 here?
The IC50 was 4.6 nM.

What about the Kd [1] of the same molecule?
The Kd was 0.14 nM.

What about the IC50 (HCC70) of the same molecule?
The IC50 was 207 nM.

What does the source list for CN1CCCCO[C@H]2CC[C@@H](C2)Nc2ncc(C(F)(F)F)c(n2)-c2c[nH]c3c(P(C)(C)=O)c(ccc23)C1=O?
Kd [1]: 3.5 nM; clearance [2]: 45.8 mL/min/kg; efflux ratio [8]: 1.1; Vd [10]: 1 L/kg; Papp [11]: 26 ×10⁻⁶ cm/s; half-life [12]: 1 h; Cmax [13]: 343 ng/mL; AUC(0-t) [14]: 563 ng·h/mL; bioavailability [15]: 30.9%; IC50 (HCC70): 243 nM; IC50 (OVCAR-3): 180 nM

What does the source list for CN1CCCCN(C)[C@H]2CC[C@@H](C2)Nc2ncc(C(F)(F)F)c(n2)-c2c[nH]c3c(P(C)(C)=O)c(ccc23)C1=O?
clearance [2]: 62.5 mL/min/kg; efflux ratio [8]: 19.2; Vd [10]: 5.6 L/kg; Papp [11]: 0.72 ×10⁻⁶ cm/s; half-life [12]: 2.1 h; Cmax [13]: 105 ng/mL; AUC(0-t) [14]: 302 ng·h/mL; bioavailability [15]: 22.7%; IC50 (HCC70): 22 nM; IC50 (OVCAR-3): 105 nM
